# Data: patent publication US12324927B2, “Methods and systems for photodynamic therapy calculations” (THE TRUSTEES OF THE UNIVERSITY OF PENNSYLVANIA, priority 2018, dated 2025)
# Experiment: Clinical ROSED during Photofrin-mediated pleural PDT (light fluence, Photofrin concentration, DCS blood flow)
# Format: in vivo, human
# Method: Patients with pathologically confirmed epithelioid malignant pleural mesothelioma were enrolled in a phase II randomized clinical trial of extended pleurectomy/decortication with or without Photofrin-mediated PDT. Photofrin (provided by Pinnacle Biologics, Chicago, IL, USA) was administered at 2 mg per kg of body weight as an intravenous infusion approximately 24 hours prior to the anticipated time of intra-operative PDT. After surgically resecting all gross disease, PDT treatment was performed with 630 nm light to a total fluence of 60 J/cm^2 as previously described (24-28). Briefly, the pleural cavity was filled with diluted Intralipid solution to aid with light scattering and 60 J/cm^2 630 nm light was delivered to the pleural cavity via an optical fiber inserted into modified endotracheal tube filled with 0.1% Intralipid. Homogeneous light delivery is accomplished by continuously moving the light source around the pleural cavity b with continuous feedback monitoring of light fluence rate and cumulative fluence provided by 8 isotropic detectors (Medlight, Switzerland) sutured to the chest wall. Four of the eight isotropic detectors were used to monitor the light dose and Photofrin fluorescence simultaneously. Long pass filters (Semrock, Inc., Rochester, NY, USA) were used to block the treatment light before the fluorescence was recorded by 4 single channel spectrometers (Exemplar, B&W Tek, Inc., Newark, DE, USA).
# PDT dose dosimeter consists of photodiodes for light fluence rates measurements and spectrometers for fluorescence measurements. More details about PDT dosimeter and the quantification of absolute Photofrin concentration from measured fluorescence spectra can be found in (19).
# Measurement of blood flow during clinical PDT: DCS monitoring of tissue blood flow during pleural PDT was implemented using a custom built DCS contact probe as shown in FIG. 15B. The contact probe consists of a side-firing multimode source fiber and three single mode detector fibers polished at 45°. Light from a continuous wave 785-nm laser with long coherence length was delivered through the source fiber, and the reflected diffuse light was collected using the detector fibers located at 0.4, 0.7 and 1.0-cm from the source fiber. Three single photon counting avalanche photodiodes were used to detect the diffuse light in parallel. The DCS probe was mounted onto a clear acrylic rectangle pad with small holes at each corner that allowed it to be sutured adjacent to one of the isotropic detectors measuring light fluence rate and photosensitizer fluorescence data. Tissue blood flow was measured continuously throughout the PDT treatment. The study started with one DCS contact probe for the first 2 patients, and it was later expanded for the next 5 patients to include the second DCS contact probe to enable simultaneous measurements of blood flow at two different pleural sites.
# Calculation of [ROS]rx using ROSED: The PDT process is described by a set of kinetic equations which can be simplified to compute the production of [ROS]rx (4, 8, 9, 13). These equations are dependent on the temporal and spatial distribution of light fluence rate (ϕ), photosensitizer concentration ([S0]), ground state oxygen concentration ([^3O2]), oxygen supply rate (g), and the photosensitizer-specific reaction-rate parameters (δ, β, σ, and ξ). The relevant equations are: […]
# Since Photofrin concentration and tissue oxygen were measured in this study, only Eq. (A3) is needed to calculate for [ROS]rx. For the calculation of [ROS]rx, the term on the right-hand side of Eq. (A3) is integrated over the time course of PDT treatment using the measured value of [^3O2], [S0], and light fluence rate. In vivo light fluence rate distribution can be estimated from the in-air light fluence rate using a 6-parameter analytic expression (29). Tissue optical properties needed for this calculation were obtained from diffuse reflectance measurements using the multi-fiber contact probe. […]
# [1] = average of 12 sites, 7 patients
substance,measurement,setting,value
Photofrin,range of calculated [ROS]rx,"12 sites, 7 patients",0.31−1.17 mM
same,photobleaching (mean Photofrin concentrations during PDT),all measurement sites and all patients,no sign of photobleaching
same,[ROS]rx,"at surface, per patient and pleural site, ROSED with blood-flow-derived oxygen, pleural apex",0.59 mM
same,mean (standard deviation) calculated [ROS]rx,[1],0.59 ± 0.25 mM
same,mean Photofrin concentration of all pleural tissues,[1],6.2 ± 2.1 mg/kg
same,[Photofrin],"mean corrected concentration per patient and pleural site, 2 mg per kg i.v. about 24 h before PDT, pleural apex",3.9 mg/kg
